# Data taken from ChEMBL document CHEMBL5247667, “Design, synthesis and characterizations of prodrugs of brexanolone” (Bioorg Med Chem Lett, 2023).
# Assay: Prodrug conversion in beagle dog assessed as ratio of AUC for compound to BXN at 1 mg/kg,IV and measured after 60 mins by LC-MS/MS analysis
# Format: ADME, organism-based, Canis lupus familiaris
# Conditions: in vivo, 1 h
row,Structure (SMILES),Ratio AUC
1,CC(=O)[C@H]1CC[C@H]2[C@@H]3CC[C@H]4C[C@H](OC(=O)OCCOC(=O)C(C)C)CC[C@]4(C)[C@H]3CC[C@]12C,0.1

# Assay: Half life in Sprague-Dawley rat assessed as BXN at 1 mg/kg, IV administered for 30 mins measured after 24 hrs post dose by LC-MS/MS analysis
# Format: ADME, organism-based
# Conditions: in vivo, 24.5 h
row,Structure (SMILES),t1/2
1,CC(=O)[C@H]1CC[C@H]2[C@@H]3CC[C@H]4C[C@H](OC(=O)OCCOC(=O)C(C)C)CC[C@]4(C)[C@H]3CC[C@]12C,13.5 h

# Assay: Metabolic stability in human plasma assessed as half life at 1 uM incubated for 60 min by LC-MS/MS method
# Format: ADME, cell-free
# Conditions: not given
row,Structure (SMILES),half-life at 1 µM
1,CC(=O)[C@H]1CC[C@H]2[C@@H]3CC[C@H]4C[C@H](OC(=O)OCCOC(=O)C(C)C)CC[C@]4(C)[C@H]3CC[C@]12C,90 min

# Assay: Cmax in Sprague-Dawley rat assessed as BXN at 1 mg/kg, IV administered for 30 mins measured after 24 hrs post dose by LC-MS/MS analysis
# Format: ADME, organism-based
# Parameters: time 24.5 hrs, dose 1 mg/kg, route iv
# Conditions: in vivo, 24.5 h
row,Structure (SMILES),Cmax
1,CC(=O)[C@H]1CC[C@H]2[C@@H]3CC[C@H]4C[C@H](OC(=O)OCCOC(=O)C(C)C)CC[C@]4(C)[C@H]3CC[C@]12C,119 ng/mL

# Assay: Half life in Sprague-Dawley rat at 5 mg/kg, IM administered for 30 mins measured after 24 hrs post dose by LC-MS/MS analysis
# Format: ADME, organism-based
# Conditions: in vivo, time 24.5 hrs
row,Structure (SMILES),half-life
1,CC(=O)[C@H]1CC[C@H]2[C@@H]3CC[C@H]4C[C@H](OC(=O)OCCOC(=O)C(C)C)CC[C@]4(C)[C@H]3CC[C@]12C,143 min

# Assay: Metabolic stability in Sprague-Dawley rat plasma assessed as half life at 1 uM incubated for 60 min by LC-MS/MS method
# Format: ADME, cell-free
# Conditions: not given
row,Structure (SMILES),half-life at 1 µM
1,CC(=O)[C@H]1CC[C@H]2[C@@H]3CC[C@H]4C[C@H](OC(=O)OCCOC(=O)C(C)C)CC[C@]4(C)[C@H]3CC[C@]12C,< 3 min

# Assay: AUClast in Sprague-Dawley rat assessed as BXN at 5 mg/kg, IM administered for 30 mins measured after 24 hrs post dose by LC-MS/MS analysis
# Format: ADME, organism-based
# Parameters: time 24.5 hrs, dose 5 mg/kg, route im
# Conditions: in vivo, 24.5 h
row,Structure (SMILES),AUClast
1,CC(=O)[C@H]1CC[C@H]2[C@@H]3CC[C@H]4C[C@H](OC(=O)OCCOC(=O)C(C)C)CC[C@]4(C)[C@H]3CC[C@]12C,390 ng·h/mL

# Assay: Cmax in beagle dog at 5 mg/kg, IM administered for 30 mins measured after 24 hrs post dose by LC-MS/MS analysis
# Format: ADME, organism-based, Canis lupus familiaris
# Parameters: time 24.5 hrs, dose 5 mg/kg, route im
# Conditions: in vivo
row,Structure (SMILES),Cmax
1,CC(=O)[C@H]1CC[C@H]2[C@@H]3CC[C@H]4C[C@H](OC(=O)OCCOC(=O)C(C)C)CC[C@]4(C)[C@H]3CC[C@]12C,31.4 ng/mL

# Assay: Metabolic stability in beagle dog plasma assessed as half life at 1 uM incubated for 60 min by LC-MS/MS method
# Format: ADME, cell-free, Canis lupus familiaris
# Conditions: not given
row,Structure (SMILES),half-life at 1 µM
1,CC(=O)[C@H]1CC[C@H]2[C@@H]3CC[C@H]4C[C@H](OC(=O)OCCOC(=O)C(C)C)CC[C@]4(C)[C@H]3CC[C@]12C,92 min

# Assay: Metabolic stability in beagle dog liver S9 fraction assessed as half life at 1 uM incubated for 60 min by LC-MS/MS method
# Format: ADME, subcellular, Canis lupus familiaris
# Conditions: not given
row,Structure (SMILES),half-life at 1 µM
1,CC(=O)[C@H]1CC[C@H]2[C@@H]3CC[C@H]4C[C@H](OC(=O)OCCOC(=O)C(C)C)CC[C@]4(C)[C@H]3CC[C@]12C,2.5 min

# Assay: AUClast in beagle dog at 1 mg/kg, IV administered for 30 mins measured after 24 hrs post dose by LC-MS/MS analysis
# Format: ADME, organism-based, Canis lupus familiaris
# Parameters: time 24.5 hrs, dose 1 mg/kg, route iv
# Conditions: in vivo
row,Structure (SMILES),AUC(0-t) at 24.5 h
1,CC(=O)[C@H]1CC[C@H]2[C@@H]3CC[C@H]4C[C@H](OC(=O)OCCOC(=O)C(C)C)CC[C@]4(C)[C@H]3CC[C@]12C,238 ng·h/mL

# Assay: Prodrug conversion in Sprague-Dawley rat assessed as ratio of AUC for compound to BXN at 1 mg/kg,IV and measured after 60 mins by LC-MS/MS analysis
# Format: ADME, organism-based
# Conditions: in vivo, 1 h
row,Structure (SMILES),Ratio AUC
1,CC(=O)[C@H]1CC[C@H]2[C@@H]3CC[C@H]4C[C@H](OC(=O)OCCOC(=O)C(C)C)CC[C@]4(C)[C@H]3CC[C@]12C,> 390

# Assay: AUClast in beagle dog assessed as BXN at 5 mg/kg, IM administered for 30 mins measured after 24 hrs post dose by LC-MS/MS analysis
# Format: ADME, organism-based, Canis lupus familiaris
# Parameters: time 24.5 hrs, dose 5 mg/kg, route im
# Conditions: in vivo, 24.5 h
row,Structure (SMILES),AUClast
1,CC(=O)[C@H]1CC[C@H]2[C@@H]3CC[C@H]4C[C@H](OC(=O)OCCOC(=O)C(C)C)CC[C@]4(C)[C@H]3CC[C@]12C,119 ng·h/mL

# Assay: AUClast in Sprague-Dawley rat at 1 mg/kg, IV administered for 30 mins measured after 24 hrs post dose by LC-MS/MS analysis
# Format: ADME, organism-based
# Parameters: dose 1 mg/kg, time 24.5 hrs, route iv
# Conditions: in vivo
row,Structure (SMILES),AUC(0-t) at 24.5 h
1,CC(=O)[C@H]1CC[C@H]2[C@@H]3CC[C@H]4C[C@H](OC(=O)OCCOC(=O)C(C)C)CC[C@]4(C)[C@H]3CC[C@]12C,9.03 ng·h/mL

# Assay: Prodrug conversion in Sprague-Dawley rat assessed as ratio of AUC for compound to BXN at 5 mg/kg,IM and measured after 60 mins by LC-MS/MS analysis
# Format: ADME, organism-based
# Conditions: in vivo, 1 h
row,Structure (SMILES),Ratio AUC
1,CC(=O)[C@H]1CC[C@H]2[C@@H]3CC[C@H]4C[C@H](OC(=O)OCCOC(=O)C(C)C)CC[C@]4(C)[C@H]3CC[C@]12C,28

# Assay: Cmax in beagle dog at 1 mg/kg, IV administered for 30 mins measured after 24 hrs post dose by LC-MS/MS analysis
# Format: ADME, organism-based, Canis lupus familiaris
# Parameters: time 24.5 hrs, dose 1 mg/kg, route iv
# Conditions: in vivo
row,Structure (SMILES),Cmax
1,CC(=O)[C@H]1CC[C@H]2[C@@H]3CC[C@H]4C[C@H](OC(=O)OCCOC(=O)C(C)C)CC[C@]4(C)[C@H]3CC[C@]12C,590 ng/mL

# Assay: Cmax in beagle dog assessed as BXN at 5 mg/kg, IM administered for 30 mins measured after 24 hrs post dose by LC-MS/MS analysis
# Format: ADME, organism-based, Canis lupus familiaris
# Parameters: time 24.5 hrs, dose 5 mg/kg, route im
# Conditions: in vivo, 24.5 h
row,Structure (SMILES),Cmax
1,CC(=O)[C@H]1CC[C@H]2[C@@H]3CC[C@H]4C[C@H](OC(=O)OCCOC(=O)C(C)C)CC[C@]4(C)[C@H]3CC[C@]12C,11.3 ng/mL

# Assay: Prodrug conversion in beagle dog assessed as ratio of AUC for compound to BXN at 5 mg/kg,IM and measured after 60 mins by LC-MS/MS analysis
# Format: ADME, organism-based, Canis lupus familiaris
# Conditions: in vivo, 1 h
row,Structure (SMILES),Ratio AUC
1,CC(=O)[C@H]1CC[C@H]2[C@@H]3CC[C@H]4C[C@H](OC(=O)OCCOC(=O)C(C)C)CC[C@]4(C)[C@H]3CC[C@]12C,3.3

# Assay: Cmax in Sprague-Dawley rat assessed as BXN at 5 mg/kg, IM administered for 30 mins measured after 24 hrs post dose by LC-MS/MS analysis
# Format: ADME, organism-based
# Parameters: time 24.5 hrs, dose 5 mg/kg, route im
# Conditions: in vivo, 24.5 h
row,Structure (SMILES),Cmax
1,CC(=O)[C@H]1CC[C@H]2[C@@H]3CC[C@H]4C[C@H](OC(=O)OCCOC(=O)C(C)C)CC[C@]4(C)[C@H]3CC[C@]12C,81.2 ng/mL

# Assay: Metabolic stability in human liver S9 fraction assessed as half life at 1 uM incubated for 60 min by LC-MS/MS method
# Format: ADME, subcellular
# Conditions: not given
row,Structure (SMILES),half-life at 1 µM
1,CC(=O)[C@H]1CC[C@H]2[C@@H]3CC[C@H]4C[C@H](OC(=O)OCCOC(=O)C(C)C)CC[C@]4(C)[C@H]3CC[C@]12C,2.5 min

# Assay: AUClast in beagle dog at 5 mg/kg, IM administered for 30 mins measured after 24 hrs post dose by LC-MS/MS analysis
# Format: ADME, organism-based, Canis lupus familiaris
# Parameters: dose 5 mg/kg, time 24.5 hrs, route im
# Conditions: in vivo
row,Structure (SMILES),AUC(0-t) at 24.5 h
1,CC(=O)[C@H]1CC[C@H]2[C@@H]3CC[C@H]4C[C@H](OC(=O)OCCOC(=O)C(C)C)CC[C@]4(C)[C@H]3CC[C@]12C,36.5 ng·h/mL

# Assay: Cmax in Sprague-Dawley rat at 1 mg/kg, IV administered for 30 mins measured after 24 hrs post dose by LC-MS/MS analysis
# Format: ADME, organism-based
# Parameters: time 24.5 hrs, dose 1 mg/kg, route iv
# Conditions: in vivo
row,Structure (SMILES),Cmax
1,CC(=O)[C@H]1CC[C@H]2[C@@H]3CC[C@H]4C[C@H](OC(=O)OCCOC(=O)C(C)C)CC[C@]4(C)[C@H]3CC[C@]12C,45.6 ng/mL

# Assay: Cmax in beagle dog assessed as BXN at 1 mg/kg, IV administered for 30 mins measured after 24 hrs post dose by LC-MS/MS analysis
# Format: ADME, organism-based, Canis lupus familiaris
# Parameters: dose 1 mg/kg, time 24.5 hrs, route iv
# Conditions: in vivo, 24.5 h
row,Structure (SMILES),Cmax
1,CC(=O)[C@H]1CC[C@H]2[C@@H]3CC[C@H]4C[C@H](OC(=O)OCCOC(=O)C(C)C)CC[C@]4(C)[C@H]3CC[C@]12C,41.9 ng/mL

# Assay: AUClast in beagle dog assessed as BXN at 1 mg/kg, IV administered for 30 mins measured after 24 hrs post dose by LC-MS/MS analysis
# Format: ADME, organism-based, Canis lupus familiaris
# Parameters: dose 1 mg/kg, time 24.5 hrs, route iv
# Conditions: in vivo, 24.5 h
row,Structure (SMILES),AUClast
1,CC(=O)[C@H]1CC[C@H]2[C@@H]3CC[C@H]4C[C@H](OC(=O)OCCOC(=O)C(C)C)CC[C@]4(C)[C@H]3CC[C@]12C,24 ng·h/mL

# Assay: AUClast in Sprague-Dawley rat assessed as BXN at 1 mg/kg, IV administered for 30 mins measured after 24 hrs post dose by LC-MS/MS analysis
# Format: ADME, organism-based
# Parameters: dose 1 mg/kg, time 24.5 hrs, route iv
# Conditions: in vivo, 24.5 h
row,Structure (SMILES),AUClast
1,CC(=O)[C@H]1CC[C@H]2[C@@H]3CC[C@H]4C[C@H](OC(=O)OCCOC(=O)C(C)C)CC[C@]4(C)[C@H]3CC[C@]12C,256 ng·h/mL

# Assay: Half life in beagle dog assessed as BXN at 5 mg/kg, IM administered for 30 mins measured after 24 hrs post dose by LC-MS/MS analysis
# Format: ADME, organism-based, Canis lupus familiaris
# Conditions: in vivo, 24.5 h
row,Structure (SMILES),t1/2
1,CC(=O)[C@H]1CC[C@H]2[C@@H]3CC[C@H]4C[C@H](OC(=O)OCCOC(=O)C(C)C)CC[C@]4(C)[C@H]3CC[C@]12C,53.3 h
